Results published in patent publication US7897591B2, “Method of treating fatty liver disease” (priority 2005, dated 2011).

What was measured:
C57BL/6 mice [1] = test: Fatty acid analysis of serum and liver lipids (triglycerides, phospholipids) in HCD mouse model; type: in vivo
Protocol: Experiments were performed on 5-6 week-old C57BL/6 mice (Jackson Laboratories, Bar Harbor, Me.). The animals, in groups of five, were housed in a barrier room and were acclimated to their environment for at least 72 hours prior to the initiation of each experiment. Animal protocols complied with the NIH Animal Research Advisory Committee guidelines and were approved by the Children's Hospital Boston Animal Care and Use Committee. Control animals (n=5) received normal chow and water ad libitum. All animals in the experimental groups were fed a fat-free, high carbohydrate liquid diet (HCD) ad libitum placed in one bottle per cage as previously described (3, 62). No additional sources of nutrition or hydration were provided. The HCD liquid solution contained 20% dextrose, a commercial mixture of 2% essential and nonessential amino acids (TrophAmine, B. Braun Medical, Irvine, Calif.), 2 ml trace elements (Trace Elements Injection 4, USP—Pediatric, American Regent Shirley, N.Y.), and 5 ml multivitamins (M.V.I. Pediatric™, Mayne Pharma, Paramus, N.J.). Each liter of HCD contained 30 meq sodium, 20 meq potassium chloride, 15 meq calcium, 10 meq magnesium, and 10 mM phosphate. The bottles were replaced daily with fresh HCD solution. HCD animals (n=5) received HCD only and no additional treatment for 19 days. The HCD+MAR animals (n=15) additionally received 100 mg/kg of Marimastat™ in 0.45% methylcellulose (Sigma-Aldrich Corporation, St. Louis, Mo.) vehicle twice daily via orogastric gavage. The animals were individually weighed every third day and at sacrifice. Fatty acid analysis was conducted as described previously (1, 2, 31). Briefly, lipids were extracted from serum and livers, and then fractionated into triglycerides and phospholipids by solid phase chromatography using an aminopropyl column. After appropriate processing, samples were injected into a Hewlett Packard 5890A gas chromatograph for analysis.

C57BL/6 mice [2] = test: General observations: survival, stool, body weight, macroscopic liver appearance and weight; type: in vivo, mouse
Protocol: Experiments were performed on 5-6 week-old C57BL/6 mice (Jackson Laboratories, Bar Harbor, Me.). The animals, in groups of five, were housed in a barrier room and were acclimated to their environment for at least 72 hours prior to the initiation of each experiment. Animal protocols complied with the NIH Animal Research Advisory Committee guidelines and were approved by the Children's Hospital Boston Animal Care and Use Committee.
Control animals (n=5) received normal chow and water ad libitum. All animals in the experimental groups were fed a fat-free, high carbohydrate liquid diet (HCD) ad libitum placed in one bottle per cage as previously described (3, 62). No additional sources of nutrition or hydration were provided. The HCD liquid solution contained 20% dextrose, a commercial mixture of 2% essential and nonessential amino acids (TrophAmine, B. Braun Medical, Irvine, Calif.), 2 ml trace elements (Trace Elements Injection 4, USP—Pediatric, American Regent Shirley, N.Y.), and 5 ml multivitamins (M.V.I. Pediatric™, Mayne Pharma, Paramus, N.J.). Each liter of HCD contained 30 meq sodium, 20 meq potassium chloride, 15 meq calcium, 10 meq magnesium, and 10 mM phosphate. The bottles were replaced daily with fresh HCD solution. HCD animals (n=5) received HCD only and no additional treatment for 19 days. The HCD+MAR animals (n=15) additionally received 100 mg/kg of Marimastat™ in 0.45% methylcellulose (Sigma-Aldrich Corporation, St. Louis, Mo.) vehicle twice daily via orogastric gavage. The animals were individually weighed every third day and at sacrifice.
We then performed a midline laparotomy to observe, excise, and weigh the liver. Approximately one half of the liver was fixed in 10% formalin at 4° C. overnight, washed with phosphate buffered saline, and then embedded in paraffin. After cutting 5 μm sections, slides were stained at the Department of Pathology, Children's Hospital Boston with H&E to examine cellular architecture and lipid accumulation, and with periodic acid-Schiff (PAS) to identify the presence of glycogen.

C57BL/6 mice [3] = test: Liver histology (H&E, PAS, Oil Red O) in fat-free high carbohydrate diet (HCD) mouse model of hepatic steatosis; type: in vivo; conditions: HCD+MAR mice, 100 mg/kg twice daily, 19 days
Protocol: Experiments were performed on 5-6 week-old C57BL/6 mice (Jackson Laboratories, Bar Harbor, Me.). The animals, in groups of five, were housed in a barrier room and were acclimated to their environment for at least 72 hours prior to the initiation of each experiment. Animal protocols complied with the NIH Animal Research Advisory Committee guidelines and were approved by the Children's Hospital Boston Animal Care and Use Committee. Control animals (n=5) received normal chow and water ad libitum. All animals in the experimental groups were fed a fat-free, high carbohydrate liquid diet (HCD) ad libitum placed in one bottle per cage as previously described (3, 62). No additional sources of nutrition or hydration were provided. The HCD liquid solution contained 20% dextrose, a commercial mixture of 2% essential and nonessential amino acids (TrophAmine, B. Braun Medical, Irvine, Calif.), 2 ml trace elements (Trace Elements Injection 4, USP-Pediatric, American Regent Shirley, N.Y.), and 5 ml multivitamins (M.V.I. PediatricTM, Mayne Pharma, Paramus, N.J.). Each liter of HCD contained 30 meq sodium, 20 meq potassium chloride, 15 meq calcium, 10 meq magnesium, and 10 mM phosphate. The bottles were replaced daily with fresh HCD solution. HCD animals (n=5) received HCD only and no additional treatment for 19 days. The HCD+MAR animals (n=15) additionally received 100 mg/kg of MarimastatTM in 0.45% methylcellulose (Sigma-Aldrich Corporation, St. Louis, Mo.) vehicle twice daily via orogastric gavage. The animals were individually weighed every third day and at sacrifice. We then performed a midline laparotomy to observe, excise, and weigh the liver. Approximately one half of the liver was fixed in 10% formalin at 4° C. overnight, washed with phosphate buffered saline, and then embedded in paraffin. After cutting 5 μm sections, slides were stained at the Department of Pathology, Children's Hospital Boston with H&E to examine cellular architecture and lipid accumulation, and with periodic acid-Schiff (PAS) to identify the presence of glycogen. Another portion of the liver was collected as frozen sections, placed in embedding medium (Optimal Cutting Temperature OCT, […], Torrance, Calif.), and immersed in cold 2-methylbutane (Aldrich, Milwaukee, Wis.) on dry ice. The samples were stored at […]. Sections were stained at the Department of Pathology, Children's Hospital Boston with Oil Red O to detect fat.

SMILES: CNC(=O)[C@@H](NC(=O)[C@H](CC(C)C)[C@H](O)C(=O)NO)C(C)(C)C [Marimastat]
- hepatic triglyceride level (C57BL/6 mice [1]; HCD+MAR vs HCD, remained higher than in controls): significantly reduced
- serum triglyceride and phospholipids (C57BL/6 mice [1]; HCD+MAR, reduced in HCD-only compared to control): normalized
- hepatic phospholipids (C57BL/6 mice [1]; among the three groups): no significant differences
- survival (C57BL/6 mice [2]; 19 day protocol): All animals survived
- liver weight (C57BL/6 mice [2]; mouse, in vivo): no significant difference
- stool / bowel integrity (C57BL/6 mice [2]; mouse, in vivo, 100 mg/kg): soft stool without gross signs of loss of bowel integrity
- H&E inflammatory changes / necrosis (C57BL/6 mice [3]): occasional focal cellular infiltrates consistent with focal necrosis
- Oil Red O staining (fat in liver) (C57BL/6 mice [3]): minimal presence of fat
- PAS staining (glycogen storage) (C57BL/6 mice [3]): highly positive, granular, and widespread
- steatosis on H&E sections (C57BL/6 mice [3]): No definitive steatosis
